We go through two molecules from patent US6592545B1, “Particle delivery” (PowderJect Research Limited, priority 1994, dated 2003).

The conditions of series [1]: in vivo. As to the method:
In a second study, a single 3.0 mg dose of lignocaine HCL particles (as above) was delivered using a needleless syringe, and a single 0.2 mL dose of 2% lignocaine HCL was delivered via needle-syringe injection. Pain associated with the administration of each treatment was scored in all 14 subjects using a 100 mm visual analogue scale immediately after each treatment, wherein 100% indicates a painful treatment, and 0% indicates a pain-free treatment. The needleless syringe employed in the study was operated using 40 bar helium driving gas to expel anaesthetic particles from a flexible, eversible dome-shaped membrane comprised of a 400 μm, 6 mm polyurethane film.

Series [2] has as its system oral mucosa. The series is described as follows: Local anaesthesia: pain response to probing oral mucosa with back of 27G dental needle, visual analogue scale. Type of series: in vivo, human. The note with it: 3.0 mg particles via needleless syringe; probe of treated area 1 minute post delivery; untreated 55.6%, placebo 30.6%.
Description: A randomized, double-blind study was then carried out as follows. Treatments were given to 14 subjects over the course of three visits. The treatments provided to the subjects in each visit were either a single 3.0 mg dose of Lignocaine HCL particles from the above-described needleless syringe device, or 0.0 mg (as a blinded negative control). Accordingly, treatments provided over the course of the three visits were either: two actual (3.0 mg) doses of the anaesthetic particles and one placebo; or two placebos and one actual (3.0 mg) dose. Pain stimulus was provided by probing oral mucosa with the back of a 27G dental needle, wherein the probe sequence was a probe on an untreated area of the mucosa, and then a probe on the treated area of the mucosa 1 minute post delivery. Again, the pain associated with the probe of the untreated and treated areas was scored on visual analogue scales using the above scoring methods immediately after each probe.
For series [3], the system named is oral mucosa. The series is described as follows: Visual assessment of oral mucosa delivery sites for damage or irritation after needleless syringe delivery. It counts as in vivo, human. The note with it: single 3 mg dose, particles 38-53 μm, 14 subjects, 24-48 hours after delivery. As to the method:
A randomized, double-blind, negatively controlled study was carried out in normal, healthy human subjects as follows. Initially, a single 3 mg dose of lignocaine HCL particles sized between 38 and 53 μm was delivered from a needleless syringe constructed in accordance with the invention. The lignocaine was delivered to the oral mucosa adjacent to the number 12 and 22 lateral incisors in 14 trial subjects. The delivery sites were then visually assessed for evidence of damage or irritation to the mucosal tissues.

The nature of series [4]: Serum testosterone pharmacokinetics after subcutaneous or OralJect transmucosal delivery (radioimmunoassay). The note with it: for Cmax: mean. Type of series: in vivo, New Zealand White rabbit. As to the method:
Testosterone (Sigma Chemicals) was milled and sieved into a particle size range (approximately 50-100 μm) suitable for transmucosal delivery from a needleless syringe using standard stainless steel mesh sieves. Female New Zealand White rabbit subjects weighing between 2.2-2.8 kg were used and allowed food and water ad libitum. The rabbits (n=8) were randomly assigned to one of two treatment groups. The first treatment group received testosterone (2.0 mg dose) as a suspension in 35% polyvinylpyrrolidone C-30 in water (6 mg/g testosterone concentration) via subcutaneous injection. The second treatment group received testosterone (2.0 mg dose of testosterone particles ranging from 53-75 μm) as two 1.0 mg transmucosal administrations from an OralJect™ needleless syringe device abutted against the cheek mucosa.
Whole blood (1.0 ml) was taken at times 0, 0.5, 1, 2, 4, 6, 8, 12, 24 and 48 hours, the serum aspirated and assayed for testosterone by radioimmunoassay (DPC). The OralJect™ device is a prototype device of the present invention that is actuated by helium at 40 bar.

The conditions of series [5]: oral administration, degraded by the liver; cited from earlier work.

Structures are written as SMILES. Where a name gives a salt, the structure may show the parent alone.

In the case of `CCN(CC)CC(=O)Nc1c(C)cccc1C` [lignocaine HCL], the “pain associated with administration, mean visual analogue score” value in series [1] worked out at 49.9%. For the same molecule, the “mean pain response score to probe” value in the series with oral mucosa [2] is listed as 15.0%. Besides, the “tissue reaction at delivery sites” value in the series on oral mucosa [3] is listed as “no evidence of any tissue reaction”.

On to `C[C@]12CC[C@H]3[C@@H](CCC4=CC(=O)CC[C@@]43C)[C@@H]1CC[C@@H]2O` [testosterone, Testosterone], for which the Cmax in series [4] (OralJect transmucosal (cheek mucosa), 2 x 1.0 mg particles 53-75 μm, rabbit serum) came to 25.5 ± 3.5 nmol/I; in series [4] (subcutaneous injection, 2.0 mg suspension in 35% polyvinylpyrrolidone C-30, rabbit serum) it was 34.8 ± 6.9 nmol/I. The “second minor peak of serum testosterone, time post administration” value in series [4] (OralJect transmucosal, possible depot effect) is 12 h. In addition, the bioavailability in series [4] (female, New Zealand White, rabbit, serum, 2 mg, OralJect transmucosal, 2.0 mg, rabbit, read-out: % BA (% bioavailability)) was roughly 48.3%. Moreover, the Tmax in series [4] (female, New Zealand White, rabbit, serum, OralJect transmucosal, 2.0 mg, all animals) was 30 min. Further, the Cmax range in series [4] (subcutaneous injection, 2.0 mg, rabbit serum) is given as 26.9 − 55.2 nmol/I. In addition, the first pass degradation in series [5] was 98%.
